Assays:
Assay type in all cases: in vivo
Nilaparvata lugens = experiment: Insecticidal activities to plant hopper, spraying method; details: for mortality at 500 ppm: Nilaparvata lugens, read-out: Nilaparvata lugens Mortality (%) 500 ppm
Outline: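 Nilaparvata lugens, 10 insects per tumbler, sprayed with 2 ml compound in acetone at 0.79-500 ppm, three replicates, aqueous acetone control. Dead insects counted after 24 h; mortality corrected against control survival.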

[1] = test system: Pseudaletia separate Walker; experiment: Insecticidal activities to armyworm, leaf dipping and feeding
Method: (§1) Mortality (%)=(the number of the survival aphis in control group−the number of the survival aphis in the treatment group)/the number of the survival aphis in control group×100%
(3): Insecticidal Activities to Armyworm
Armyworm (Pseudaletia separate Walker) was tested by the way of leaf dipping and feeding. The test compound was exactly formulated with acetone into solutions having concentrations of 500, 250, 100, 50, 25, 12.5, 6.25, 3.13 and 1.57 ppm, respectively. Aqueous acetone solution was used as control. Fresh maize leaves were immersed in the solution for 3 seconds, dried at room temperature, and fed to the tested insects. Each treatment was tested with 10 insects and repeated for 3 tumblers (3 times). The number of killed insects was counted after 24 hours to calculate the mortality according to the above mentioned formula.

Plutella xylostella = experiment: Insecticidal activities to diamondback moth, feeding dipped leaves; details: for mortality at 500 ppm: Plutella xylostella, read-out: Plutella xylostella Mortality (%) 500 ppm
Method: as §1
(4): Insecticidal Activities to Diamondback Moth
Diamondback moth (Plutella xylostella) was tested by the way of feeding dippedleaves. Fresh cabbage leaves were immersed in above mentioned solution for 3 seconds, dried at room temperature, and fed to the tested insects. Each treatment was tested with 10 insects and repeated for 3 tumblers (3 times), while water was used as control. The number of killed insects was counted after 24 hours to calculate the mortality according to the above mentioned formula.

Aphis craccivoral = experiment: Insecticidal activities to aphids, immersion method; details: for mortality at 500 ppm: Aphis, read-out: Aphis craccivoral Mortality (%) 500 ppm
Outline: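 Wingless adult aphids feeding on bean sprouts were dipped 5 s in 500 ppm compound (DMF stock diluted in 0.2 mL/L aqueous Triton X-100), blotted and held at 23° C. Dead counted at 24 h, three replicates; mortality corrected against Triton-only controls.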

[2] = 500 ppm, spraying method, counted after 24 hours
[3] = 500 ppm, leaf dipping and feeding, counted after 24 hours
[4] = 500 ppm, feeding dipped leaves, counted after 24 hours

SMILES | Nilaparvata lugens Mortality (%) 500 ppm (Nilaparvata lugens; in vivo) [%] | Pseudaletia separate Walker Mortality (%) 500 ppm ([1]; in vivo) [%] | Plutella xylostella Mortality (%) 500 ppm (Plutella xylostella; in vivo) [%] | Aphis craccivoral Mortality (%) 500 ppm (Aphis craccivoral; in vivo) [%] | mortality at 500 ppm (Nilaparvata lugens; [2]) [%] | Pseudaletia separate Walker Mortality (%) 500 ppm [1, 3] [%] | mortality at 500 ppm (Plutella xylostella; [4]) [%] | mortality at 500 ppm (Aphis craccivoral; 500 ppm, immersion method) [%] | Nilaparvata lugens Mortality (%) 500 ppm (Nilaparvata lugens; [2]) [%] | Plutella xylostella Mortality (%) 500 ppm (Plutella xylostella; [4]) [%] | Aphis craccivoral Mortality (%) 500 ppm (Aphis craccivoral; 500 ppm, immersion method) [%]
CC(=C(C1=NCCN1C(C)c1ccc(Cl)nc1)[N+](=O)[O-])c1ccc(Br)o1 (racemic) [Compound 137] | 100 | 100 | 100 | 98 |  |  |  |  |  |  | 
CC(=C(C1=NCCN1C(C)c1ccc(Cl)nc1)[N+](=O)[O-])c1cccs1 (racemic) [Compound 138] | 100 | 100 | 100 | 100 |  |  |  |  |  |  | 
CC(=C(C1=NCCN1C(C)c1ccc(Cl)nc1)[N+](=O)[O-])c1ccsc1 (racemic) [Compound 139] | 100 | 95 | 100 | 93 |  |  |  |  |  |  | 
O=[N+]([O-])/C(=C/c1ccco1)C1=NCCN1Cc1ccc(Cl)nc1 [Compound 1, 2-chloro-5-((2-(2-(furan-2-yl)-1-nitrovinyl)-4,5-dihydroimidazol-1-yl)-methyl) pyridine] |  |  |  |  | 100 | 100 | 100 | 100 |  |  | 
O=[N+]([O-])/C(=C/c1ccoc1)C1=NCCN1Cc1ccc(Cl)nc1 [Compound 2, 2-chloro-5-((2-(2-(furan-3-yl)-1-nitrovinyl)-4,5-dihydro-imidazol-1-yl)-methyl) pyridine] |  |  |  |  | 100 | 100 | 100 | 100 |  |  | 
O=[N+]([O-])C(=Cc1ccc(Cl)o1)C1=NCCN1Cc1ccc(Cl)nc1 [Compound 4] | 100 | 100 | 100 | 100 |  |  |  |  |  |  | 
O=[N+]([O-])C(=Cc1ccc(Br)o1)C1=NCCN1Cc1ccc(Cl)nc1 [Compound 5] | 100 | 100 | 100 | 100 |  |  |  |  |  |  | 
O=[N+]([O-])C(=Cc1cc(Cl)co1)C1=NCCN1Cc1ccc(Cl)nc1 [Compound 6] | 100 | 100 | 100 | 100 |  |  |  |  |  |  | 
O=[N+]([O-])C(=Cc1cc(Br)co1)C1=NCCN1Cc1ccc(Cl)nc1 [Compound 7] |  |  |  |  |  | 100 |  |  | 100 | 100 | 100
O=[N+]([O-])C(=Cc1cc(Cl)c(Cl)o1)C1=NCCN1Cc1ccc(Cl)nc1 [Compound 8] | 100 | 100 | 100 | 100 |  |  |  |  |  |  | 
O=[N+]([O-])C(=Cc1oc(Cl)cc1Cl)C1=NCCN1Cc1ccc(Cl)nc1 [Compound 9] | 100 | 100 | 100 | 100 |  |  |  |  |  |  | 
O=[N+]([O-])C(=Cc1cc(Br)c(Br)o1)C1=NCCN1Cc1ccc(Cl)nc1 [Compound 10] | 100 | 100 | 100 | 100 |  |  |  |  |  |  | 
O=[N+]([O-])C(=Cc1oc(Br)cc1Br)C1=NCCN1Cc1ccc(Cl)nc1 [Compound 11] | 100 | 100 | 100 | 100 |  |  |  |  |  |  | 
Cc1ccc(C=C(C2=NCCN2Cc2ccc(Cl)nc2)[N+](=O)[O-])o1 [Compound 12] | 100 | 100 | 100 | 100 |  |  |  |  |  |  | 
Cc1coc(C=C(C2=NCCN2Cc2ccc(Cl)nc2)[N+](=O)[O-])c1 [Compound 13] | 100 | 100 | 100 | 100 |  |  |  |  |  |  | 
CCc1ccc(C=C(C2=NCCN2Cc2ccc(Cl)nc2)[N+](=O)[O-])o1 [Compound 14] | 100 | 100 | 100 | 100 |  |  |  |  |  |  | 
O=[N+]([O-])C(=Cc1ccc(CO)o1)C1=NCCN1Cc1ccc(Cl)nc1 [Compound 15] | 100 | 100 | 100 | 100 |  |  |  |  |  |  | 
O=[N+]([O-])/C(=C/c1cccs1)C1=NCCN1Cc1ccc(Cl)nc1 [Compound 16, 2-chloro-5-((2-(1-nitro-2-(thiophen-2-yl)vinyl)-4,5-dihydro-imidazol-1-yl)-methyl)pyridine] |  |  |  |  | 100 | 100 | 100 | 100 |  |  | 
O=[N+]([O-])C(=Cc1ccsc1)C1=NCCN1Cc1ccc(Cl)nc1 [Compound 17] | 100 | 100 | 100 | 100 |  |  |  |  |  |  | 
O=[N+]([O-])C(=Cc1ccc([N+](=O)[O-])s1)C1=NCCN1Cc1ccc(Cl)nc1 [Compound 18] | 100 | 100 | 100 | 100 |  |  |  |  |  |  | 
O=[N+]([O-])C(=Cc1ccc(Cl)s1)C1=NCCN1Cc1ccc(Cl)nc1 [Compound 19] | 100 | 100 | 100 | 100 |  |  |  |  |  |  | 
O=[N+]([O-])C(=Cc1ccc(Br)s1)C1=NCCN1Cc1ccc(Cl)nc1 [Compound 20] | 100 | 100 | 100 | 100 |  |  |  |  |  |  | 
O=[N+]([O-])C(=Cc1cc(Cl)cs1)C1=NCCN1Cc1ccc(Cl)nc1 [Compound 21] | 100 | 100 | 100 | 100 |  |  |  |  |  |  | 
O=[N+]([O-])C(=Cc1cc(Br)cs1)C1=NCCN1Cc1ccc(Cl)nc1 [Compound 22] | 100 | 100 | 100 | 100 |  |  |  |  |  |  | 
O=[N+]([O-])C(=Cc1cc(Cl)c(Cl)s1)C1=NCCN1Cc1ccc(Cl)nc1 [Compound 23] | 100 | 100 | 100 | 100 |  |  |  |  |  |  | 
O=[N+]([O-])C(=Cc1sc(Cl)cc1Cl)C1=NCCN1Cc1ccc(Cl)nc1 [Compound 24] |  |  |  |  |  | 100 |  |  | 100 | 100 | 100

Reference: patent publication US8232407B2, “Nitrogenous heterocyclic compounds with insecticidal activity, and the preparation and use thereof” (East China University of Science and Technology, priority 2008, dated 2012)
